According to the supplement of paper PMC11368000:

What was measured:
Settings in all cases: exposure time: 90 min
1518 = donor line of iPSC-derived cardiomyocytes; assay: POD (EC10) for decrease in total cell number (cytotoxicity) vs vehicle; higher = less potent (higher point of departure)
How it was run: (§1)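 Cardiomyocytes derived from human iPSCs of 16 donors were grown for 14 days in 384-well plates and then treated for 90 min at 37 °C with final concentrations of 0.1, 1, 10 and 100 µM in 0.5% DMSO. Once the Ca2+ flux read was done, the cells were stained for 15 min with Hoechst 33342 (2.2 µg/mL) and MitoTracker Orange, imaged at 10× on an ImageXpress Micro Confocal, and their nuclei counted per field in MetaXpress. Hierarchical Bayesian Hill fits to vehicle-normalised counts gave donor-specific cytotoxicity points of departure. These were set at a 10% decrease in counts.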

30171 [1] = donor line of iPSC-derived cardiomyocytes; assay: as above
How it was run: as §1

1118 [2] = donor line of iPSC-derived cardiomyocytes; assay: as above
How it was run: as §1

1516 = donor line of iPSC-derived cardiomyocytes; assay: as above
How it was run: as §1

1531 = donor line of iPSC-derived cardiomyocytes; assay: as above
How it was run: as §1

20032 [3] = donor line of iPSC-derived cardiomyocytes; assay: as above
How it was run: as §1

1309 [4] = donor line of iPSC-derived cardiomyocytes; assay: as above
How it was run: as §1

20084 = donor line of iPSC-derived cardiomyocytes; assay: POD (EC05) for increase in Ca2+ transient decay-to-rise ratio (QT prolongation) vs vehicle; higher = less potent (higher point of departure)
Method: (§2)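 Human iPSC-derived cardiomyocytes from 16 donors were exposed for 90 min at 37 °C to each PFAS at 0.1, 1, 10 and 100 µM in 0.5% DMSO, 384-well plates. Kinetic Ca2+ flux (FLIPR) and Hoechst nuclei counts were normalised to vehicle wells and fitted with a hierarchical Bayesian Hill model to give donor-specific PODs: EC05 for beat-rate increase or decrease and for decay-to-rise ratio increase (QT proxy), EC95 for peak-frequency loss (asystole), EC10 for total cell number loss. 0.03 µM is the lower bound.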

30171 [5] = assay: as above
Method: as §2

1434 = donor line of iPSC-derived cardiomyocytes; assay: as above
Method: as §2

1392 = donor line of iPSC-derived cardiomyocytes; assay: as above
Method: as §2

1368 = donor line of iPSC-derived cardiomyocytes; assay: as above
Method: as §2

1118 [6] = assay: as above
Method: as §2

11235 = donor line of iPSC-derived cardiomyocytes; assay: as above
Method: as §2

1083 = donor line of iPSC-derived cardiomyocytes; assay: as above
Method: as §2

30145 = donor line of iPSC-derived cardiomyocytes; assay: as above
Method: as §2

20032 [7] = assay: as above
Method: as §2

1565 = donor line of iPSC-derived cardiomyocytes; assay: as above
Method: as §2

1535 = donor line of iPSC-derived cardiomyocytes; assay: as above
Method: as §2

1309 [8] = assay: as above
Method: as §2

Structure (SMILES) | POD vs vehicle 1518 | POD vs vehicle 30171 [1] | POD vs vehicle 1118 [2] | POD vs vehicle 1516 | POD vs vehicle 1531 | POD vs vehicle 20032 [3] | POD vs vehicle 1309 [4] | POD vs vehicle 20084 | POD vs vehicle 30171 [5] | POD vs vehicle 1434 | POD vs vehicle 1392 | POD vs vehicle 1368 | POD vs vehicle 1118 [6] | POD vs vehicle 11235 | POD vs vehicle 1083 | POD vs vehicle 30145 | POD vs vehicle 20032 [7] | POD vs vehicle 1565 | POD vs vehicle 1535 | POD vs vehicle 1309 [8]
NC(=O)C(F)(F)C(F)(F)C(F)(F)C(F)(F)C(N)=O [Octafluoroadipamide] | > 100 µM | > 100 µM | > 100 µM | > 100 µM | > 100 µM | > 100 µM | > 100 µM | > 100 µM | > 100 µM | > 100 µM | > 100 µM | > 100 µM | > 100 µM | > 100 µM | > 100 µM | > 100 µM | > 100 µM | > 100 µM | > 100 µM | > 100 µM
O=C(O)C(F)(F)C(F)(F)C(F)(F)OC(F)(C(F)(F)F)C(F)(F)F [Perfluoro-4-isopropoxybutanoic_acid] | > 100 µM | > 100 µM | > 100 µM | > 100 µM | > 100 µM | > 100 µM | > 100 µM | > 100 µM | > 100 µM | > 100 µM | > 100 µM | > 100 µM | > 100 µM | > 100 µM | > 100 µM | > 100 µM | > 100 µM | > 100 µM | > 100 µM | > 100 µM
O=C(O)C(F)(F)OC(F)(F)C(F)(F)OC(F)(F)C(F)(F)OC(F)(F)C(F)(F)C(F)(F)C(F)(F)F [Perfluoro-3,6,9-trioxatridecanoic_acid] | > 100 µM | 59.5 µM | > 100 µM | 55.4 µM | > 100 µM | > 100 µM | > 100 µM | > 100 µM | > 100 µM | > 100 µM | > 100 µM | > 100 µM | > 100 µM | > 100 µM | > 100 µM | > 100 µM | > 100 µM | > 100 µM | > 100 µM | > 100 µM
O=C(O)C(F)(F)C(F)(F)C(F)(F)C(F)(F)C(F)(F)C(F)(F)F [Perfluoroheptanoic_acid] | 23.6 µM | > 100 µM | > 100 µM | – | > 100 µM | > 100 µM | > 100 µM | > 100 µM | > 100 µM | > 100 µM | > 100 µM | > 100 µM | > 100 µM | > 100 µM | > 100 µM | > 100 µM | > 100 µM | > 100 µM | > 100 µM | > 100 µM
O=S(=O)(O)CCC(F)(F)C(F)(F)C(F)(F)C(F)(F)F [4:2 Fluorotelomer sulfonic acid] | > 100 µM | > 100 µM | > 100 µM | > 100 µM | > 100 µM | > 100 µM | > 100 µM | > 100 µM | > 100 µM | > 100 µM | > 100 µM | > 100 µM | > 100 µM | > 100 µM | > 100 µM | > 100 µM | > 100 µM | > 100 µM | > 100 µM | > 100 µM
O=C(O)C(F)(F)C(F)(F)C(F)(F)C(F)(F)C(F)(F)C(F)(F)C(F)(F)F [Perfluorooctanoic_acid] | > 100 µM | > 100 µM | > 100 µM | > 100 µM | > 100 µM | > 100 µM | > 100 µM | > 100 µM | > 100 µM | > 100 µM | > 100 µM | > 100 µM | > 100 µM | > 100 µM | > 100 µM | > 100 µM | > 100 µM | > 100 µM | > 100 µM | > 100 µM
O=C(O)CCC(F)(F)C(F)(F)C(F)(F)C(F)(F)C(F)(F)F [2H,2H,3H,3H-Perfluorooctanoic_acid] | > 100 µM | > 100 µM | > 100 µM | > 100 µM | > 100 µM | > 100 µM | > 100 µM | > 100 µM | > 100 µM | > 100 µM | > 100 µM | > 100 µM | > 100 µM | > 100 µM | > 100 µM | > 100 µM | 48.4 µM | > 100 µM | > 100 µM | > 100 µM
O=S(=O)(O)C(F)(F)C(F)(F)C(F)(F)C(F)(F)F [Perfluorobutanesulfonic_acid] | > 100 µM | > 100 µM | > 100 µM | > 100 µM | > 100 µM | > 100 µM | > 100 µM | > 100 µM | > 100 µM | > 100 µM | > 100 µM | > 100 µM | > 100 µM | > 100 µM | > 100 µM | > 100 µM | > 100 µM | > 100 µM | > 100 µM | > 100 µM
OCCC(F)(F)C(F)(F)C(F)(F)C(F)(F)F [4:2 Fluorotelomer alcohol] | > 100 µM | – | > 100 µM | > 100 µM | > 100 µM | > 100 µM | > 100 µM | > 100 µM | > 100 µM | > 100 µM | > 100 µM | > 100 µM | > 100 µM | > 100 µM | > 100 µM | > 100 µM | > 100 µM | > 100 µM | > 100 µM | > 100 µM
CC(O)C(F)(F)C(F)(F)F (configuration not stated) [1-Pentafluoroethylethanol] | > 100 µM | > 100 µM | > 100 µM | > 100 µM | > 100 µM | > 100 µM | > 100 µM | > 100 µM | > 100 µM | > 100 µM | > 100 µM | > 100 µM | > 100 µM | > 100 µM | > 100 µM | > 100 µM | > 100 µM | > 100 µM | > 100 µM | > 100 µM
O=C(O)C(F)(F)C(F)(F)C(F)(F)C(F)(F)C(F)(F)C(F)(F)C(F)(F)C(F)(F)C(F)(F)F [Perfluorodecanoic_acid] | 67.6 µM | > 100 µM | > 100 µM | > 100 µM | > 100 µM | 5.59 µM | > 100 µM | > 100 µM | > 100 µM | 19.9 µM | > 100 µM | > 100 µM | > 100 µM | > 100 µM | > 100 µM | > 100 µM | > 100 µM | > 100 µM | > 100 µM | > 100 µM
O=C(O)C(F)(F)C(F)(F)C(F)F [2,2,3,3,4,4-Hexafluorobutanoic_acid] | > 100 µM | 0.125 µM | > 100 µM | > 100 µM | > 100 µM | > 100 µM | > 100 µM | > 100 µM | > 100 µM | > 100 µM | > 100 µM | > 100 µM | > 100 µM | > 100 µM | > 100 µM | > 100 µM | > 100 µM | > 100 µM | > 100 µM | > 100 µM
NC(=O)C(F)(F)C(F)(F)C(F)(F)C(F)F | > 100 µM | 0.93 µM | > 100 µM | > 100 µM | > 100 µM | > 100 µM | > 100 µM | > 100 µM | 17 µM | 0.543 µM | > 100 µM | > 100 µM | 7.19 µM | > 100 µM | > 100 µM | > 100 µM | 0.131 µM | 1.78 µM | > 100 µM | > 100 µM
NC(=O)C(F)(F)C(F)(F)C(F)(F)C(F)(F)C(F)(F)C(F)(F)C(F)(F)F [Perfluorooctanamide] | > 100 µM | > 100 µM | > 100 µM | > 100 µM | > 100 µM | > 100 µM | > 100 µM | – | > 100 µM | > 100 µM | > 100 µM | > 100 µM | > 100 µM | > 100 µM | > 100 µM | > 100 µM | – | > 100 µM | > 100 µM | > 100 µM
NC(=O)C(F)(F)C(F)(F)C(F)(F)F [Heptafluorobutyramide] | > 100 µM | > 100 µM | > 100 µM | > 100 µM | > 100 µM | > 100 µM | > 100 µM | > 100 µM | > 100 µM | > 100 µM | > 100 µM | > 100 µM | > 100 µM | > 100 µM | > 100 µM | > 100 µM | – | > 100 µM | > 100 µM | > 100 µM
N=C(N)C(F)(F)C(F)(F)C(F)(F)C(F)(F)C(F)(F)C(F)(F)C(F)(F)F [Perfluorooctanamidine] | > 100 µM | > 100 µM | > 100 µM | > 100 µM | > 100 µM | > 100 µM | > 100 µM | 0.145 µM | > 100 µM | > 100 µM | > 100 µM | > 100 µM | > 100 µM | > 100 µM | > 100 µM | > 100 µM | – | > 100 µM | > 100 µM | > 100 µM
OCC(F)(F)C(F)(F)C(F)(F)C(F)(F)C(F)(F)C(F)(F)F [6:1 Fluorotelomer alcohol] | – | > 100 µM | 1.53 µM | – | > 100 µM | > 100 µM | 98.6 µM | > 100 µM | > 100 µM | > 100 µM | > 100 µM | > 100 µM | > 100 µM | > 100 µM | > 100 µM | > 100 µM | > 100 µM | > 100 µM | > 100 µM | > 100 µM
O=C(O)C(F)(F)C(F)(F)C(F)(F)C(F)(F)C(=O)O [Octafluoroadipic_acid] | – | > 100 µM | > 100 µM | > 100 µM | > 100 µM | – | > 100 µM | > 100 µM | > 100 µM | > 100 µM | > 100 µM | > 100 µM | > 100 µM | > 100 µM | > 100 µM | > 100 µM | > 100 µM | > 100 µM | > 100 µM | > 100 µM
OCC(F)(F)OC(F)(F)C(F)(F)OC(F)(F)C(F)(F)OC(F)(F)F [Fluorinated_triethylene_glycol_monomethyl_ether] | – | > 100 µM | > 100 µM | > 100 µM | – | – | 65.6 µM | > 100 µM | > 100 µM | > 100 µM | > 100 µM | > 100 µM | > 100 µM | > 100 µM | > 100 µM | > 100 µM | > 100 µM | > 100 µM | > 100 µM | > 100 µM
